This note sets out measurements from ChEMBL document CHEMBL4359910, “From random to rational: A discovery approach to selective subnanomolar inhibitors of human carbonic anhydrase IV based on the Castagnoli-Cushman multicomponent reaction” (Eur J Med Chem, 2019).

Data set [1] has as its system ARPE-19. As to the kind of experiment: Cytotoxicity against human ARPE19 cells at 30 to 300 uM measured after 48 hrs under normoxia condition in presence of CoCl2 by MTT assay relative to control. The following applies: arpe-19, 48 h. The data set is classed as cell-based. A general note: Tetrazolium dyes change colour on reduction, which living cells bring about.
Data set [2] relates to T98G. The experiment in a line: Cytotoxicity against human T98G cells measured after 48 hrs under normoxia condition in presence of CoCl2 by MTT assay. The class given is functional, cell-based.
Data set [3] deals with ARPE-19. The experiment in a line: Cytotoxicity against human ARPE19 cells at 300 uM measured after 48 hrs under normoxia condition in presence of CoCl2 by MTT assay. The class given is cell-based. The following applies: arpe-19, 48 h.

With `CC(=O)OCCNC(=O)[C@H]1CC(=O)N(c2ccc(S(N)(=O)=O)cc2)[C@@H]1c1ccc(Cl)cc1`, the Activity is 80% in data set [1] and “Dose-dependent effect” in data set [2].

Turning to `CN1CCN(CCCNC(=O)[C@H]2CC(=O)N(c3ccc(S(N)(=O)=O)cc3)[C@@H]2c2ccc(Cl)cc2)CC1` (racemic), the Activity entry in data set [2] is “Dose-dependent effect”; in data set [3], “Toxic”. With `NS(=O)(=O)c1ccc(N2C(=O)C[C@H](C(=O)NCCCO)[C@H]2c2ccc(Cl)cc2)cc1` (racemic), the Activity result in data set [2] was “Dose-dependent effect”. As for `NS(=O)(=O)c1ccc(N2C(=O)C[C@H](C(=O)NCCCN3CCCC3)[C@H]2c2ccc(Cl)cc2)cc1` (racemic), the Activity in data set [1] is 80%; in data set [2] it was “Dose-dependent effect”.

With `NS(=O)(=O)c1ccc(N2C(=O)C[C@H](C(=O)NCCCn3ccnc3)[C@H]2c2ccc(Cl)cc2)cc1` (racemic), the Activity in data set [1] was 80%; in data set [2], “Dose-dependent effect”. `NS(=O)(=O)c1ccc(N2C(=O)C[C@H](C(=O)NCCC(=O)O)[C@H]2c2ccc(Cl)cc2)cc1` (racemic): the Activity result in data set [2] was “Dose-dependent effect”.
